In the NIST ThermoML archive (doi:10.1016/j.jct.2014.07.019) one finds speed of sound and mass density data, which are given here for nine molecules.

In general, speed of sound refers to the propagation velocity of pressure waves in the medium. One may read the mass density as the mass of a sample divided by its volume.

For data set [1] the following is noted: 100 kPa, Liquid; for speed of sound: Frequency=3 MHz, Sing-around technique in a fixed-path interferometer; for mass density: Vibrating tube method.
The nature of data set [2]: xn = mol fraction of the nth substance listed. The following applies: 100 kPa, Liquid, x2 = 0; for speed of sound: Frequency=3 MHz, Sing-around technique in a fixed-path interferometer; for mass density: Vibrating tube method.

Numbers after ± are expanded uncertainties.

Consider `CCCCOCC(C)O` (stereo not given) [1-butoxy-2-propanol], for which the speed of sound in data set [1] (293.15 K) is recorded as 1279 ± 1.3 m/s; in data set [1] (298.15 K), 1260.9 ± 1.3 m/s; in data set [1] (303.15 K), 1242.9 ± 1.3 m/s; in data set [1] (308.15 K) it was 1224.9 ± 1.3 m/s; in data set [1] (313.15 K), 1207 ± 1.3 m/s. Further, the mass density in data set [1] (293.15 K) worked out at 879.031 ± 0.15 kg/m3; in data set [1] (298.15 K), 874.632 ± 0.15 kg/m3; in data set [1] (303.15 K), 870.204 ± 0.15 kg/m3; in data set [1] (308.15 K), 865.737 ± 0.15 kg/m3; in data set [1] (313.15 K), 861.241 ± 0.15 kg/m3.

As to `CCCCO` [butan-1-ol], the speed of sound in data set [1] (293.15 K) came out at 1257.5 ± 1.2 m/s; in data set [1] (298.15 K) it was 1240.6 ± 1.2 m/s; in data set [1] (303.15 K), 1223.7 ± 1.2 m/s; in data set [1] (308.15 K), 1207 ± 1.2 m/s; in data set [1] (313.15 K) it was 1190.5 ± 1.2 m/s. Also, the mass density worked out at 809.807 ± 0.15 kg/m3 in data set [1] (293.15 K); 805.986 ± 0.15 kg/m3 in data set [1] (298.15 K); 802.139 ± 0.15 kg/m3 in data set [1] (303.15 K); 798.261 ± 0.15 kg/m3 in data set [1] (308.15 K); 794.385 ± 0.15 kg/m3 in data set [1] (313.15 K).

With `CCCCO` [butan-1-ol] + CCCCOCC(C)O, the speed of sound is 1257.5 ± 1.2 m/s in data set [2] (293.15 K); 1240.6 ± 1.2 m/s in data set [2] (298.15 K); 1223.7 ± 1.2 m/s in data set [2] (303.15 K); 1207 ± 1.2 m/s in data set [2] (308.15 K); 1190.5 ± 1.2 m/s in data set [2] (313.15 K). The mass density was 809.807 ± 0.15 kg/m3 in data set [2] (293.15 K); 805.986 ± 0.15 kg/m3 in data set [2] (298.15 K); 802.139 ± 0.15 kg/m3 in data set [2] (303.15 K); 798.261 ± 0.15 kg/m3 in data set [2] (308.15 K); 794.385 ± 0.15 kg/m3 in data set [2] (313.15 K).

As for `CCC(C)O` (stereo not given) [butan-2-ol], the speed of sound in data set [1] (293.15 K) worked out at 1230.2 ± 1.3 m/s; in data set [1] (298.15 K), 1213.3 ± 1.3 m/s; in data set [1] (303.15 K), 1197.2 ± 1.2 m/s; in data set [1] (308.15 K) it was 1177 ± 1.2 m/s; in data set [1] (313.15 K), 1158.9 ± 1.2 m/s. The mass density in data set [1] (293.15 K) was found to be 806.679 ± 0.16 kg/m3; in data set [1] (298.15 K), 802.563 ± 0.16 kg/m3; in data set [1] (303.15 K) it was 798.352 ± 0.16 kg/m3; in data set [1] (308.15 K), 794.058 ± 0.17 kg/m3; in data set [1] (313.15 K), 789.668 ± 0.17 kg/m3.

Consider `CCC(C)O` (stereo not given) [butan-2-ol] + CCCCOCC(C)O, for which the speed of sound was 1230.2 ± 1.3 m/s in data set [2] (293.15 K); 1213.3 ± 1.3 m/s in data set [2] (298.15 K); 1197.2 ± 1.2 m/s in data set [2] (303.15 K); 1177 ± 1.2 m/s in data set [2] (308.15 K); 1158.9 ± 1.2 m/s in data set [2] (313.15 K). Besides, the mass density in data set [2] (293.15 K) was determined as 806.679 ± 0.16 kg/m3; in data set [2] (298.15 K), 802.563 ± 0.16 kg/m3; in data set [2] (303.15 K), 798.352 ± 0.16 kg/m3; in data set [2] (308.15 K), 794.058 ± 0.17 kg/m3; in data set [2] (313.15 K) it was 789.668 ± 0.17 kg/m3.

`CCCO` [propan-1-ol]: the speed of sound amounted to 1224.2 ± 1.3 m/s in data set [1] (293.15 K); 1207 ± 1.3 m/s in data set [1] (298.15 K); 1189.8 ± 1.2 m/s in data set [1] (303.15 K); 1172.8 ± 1.2 m/s in data set [1] (308.15 K); 1156.2 ± 1.2 m/s in data set [1] (313.15 K). For the same molecule, the mass density in data set [1] (293.15 K) is on record as 804.144 ± 0.16 kg/m3; in data set [1] (298.15 K) it was 800.13 ± 0.16 kg/m3; in data set [1] (303.15 K) it was 796.08 ± 0.16 kg/m3; in data set [1] (308.15 K), 792.001 ± 0.17 kg/m3; in data set [1] (313.15 K), 787.884 ± 0.17 kg/m3.

On to `CCCO` [propan-1-ol] + CCCCOCC(C)O, for which the speed of sound in data set [2] (293.15 K) is recorded as 1224.2 ± 1.3 m/s; in data set [2] (298.15 K), 1207 ± 1.3 m/s; in data set [2] (303.15 K) it was 1189.8 ± 1.2 m/s; in data set [2] (308.15 K) it was 1172.8 ± 1.2 m/s; in data set [2] (313.15 K), 1156.2 ± 1.2 m/s. Further, the mass density is 804.144 ± 0.16 kg/m3 in data set [2] (293.15 K); 800.13 ± 0.16 kg/m3 in data set [2] (298.15 K); 796.08 ± 0.16 kg/m3 in data set [2] (303.15 K); 792.001 ± 0.17 kg/m3 in data set [2] (308.15 K); 787.884 ± 0.17 kg/m3 in data set [2] (313.15 K).

In the case of `CC(C)O` [propan-2-ol], the speed of sound is on record as 1168.5 ± 1.2 m/s in data set [1] (293.15 K); 1148 ± 1.2 m/s in data set [1] (298.15 K); 1132.2 ± 1.2 m/s in data set [1] (303.15 K); 1114.3 ± 1.1 m/s in data set [1] (308.15 K); 1096.2 ± 1.1 m/s in data set [1] (313.15 K). The mass density in data set [1] (293.15 K) is listed as 785.739 ± 0.15 kg/m3; in data set [1] (298.15 K), 781.588 ± 0.15 kg/m3; in data set [1] (303.15 K), 777.468 ± 0.15 kg/m3; in data set [1] (308.15 K) it was 773.151 ± 0.15 kg/m3; in data set [1] (313.15 K), 768.446 ± 0.15 kg/m3.

As for `CC(C)O` [propan-2-ol] + CCCCOCC(C)O, the speed of sound in data set [2] (293.15 K) turned out to be 1168.5 ± 1.2 m/s; in data set [2] (298.15 K), 1148 ± 1.2 m/s; in data set [2] (303.15 K), 1132.2 ± 1.2 m/s; in data set [2] (308.15 K), 1114.3 ± 1.1 m/s; in data set [2] (313.15 K), 1096.2 ± 1.1 m/s. For the same molecule, the mass density in data set [2] (293.15 K) is recorded as 785.739 ± 0.15 kg/m3; in data set [2] (298.15 K), 781.588 ± 0.15 kg/m3; in data set [2] (303.15 K), 777.468 ± 0.15 kg/m3; in data set [2] (308.15 K) it was 773.151 ± 0.15 kg/m3; in data set [2] (313.15 K), 768.446 ± 0.15 kg/m3.
